# Measured values: patent US9738634B2, “Heterocyclic amide compound and herbicide” (SYNGENTA PARTICIPATIONS AG, priority 2013, dated 2017)
# Legend:
# Assay type in all cases: in vivo
# crabgrass [1] = experiment: Test Example 4: weedkilling efficacy by foliar treatment; D: crabgrass; conditions: treatment dosage 315 g/ha
# Procedure, shortened: (§1)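 Seeds are spot-sown into sterilized diluvial soil and covered with about 1.5 cm of soil. After 14 days' greenhouse growth at 25 to 30° C, plants are sprayed on stems and leaves with diluted emulsion at the stated g/ha rate, then scored at 3 weeks.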
# green foxtail [2] = experiment: Test Example 4: weedkilling efficacy by foliar treatment; E: green foxtail; conditions: treatment dosage 315 g/ha
# Procedure, shortened: as §1
# catchweed [3] = experiment: Test Example 3: weedkilling efficacy through soil treatment; O: catchweed; conditions: treatment dosage 315 g/ha
# Procedure, shortened: (§2)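 Crop and weed responses were judged three weeks after a uniform surface spray of the water-diluted emulsion at the given g/ha rate. Seeds sat beneath about 1.5 cm of sterilized diluvial soil, and boxes stood in a greenhouse at 25 to 30° C.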
# redroot pigweed [4] = experiment: Test Example 4: weedkilling efficacy by foliar treatment; L: redroot pigweed; conditions: treatment dosage 315 g/ha
# Procedure, shortened: as §1
# directly sown rice [5] = experiment: Test Example 4: foliar treatment, effect on crop; b: directly sown rice; conditions: treatment dosage 315 g/ha
# Procedure, shortened: as §1
# green foxtail [6] = experiment: Test Example 3: weedkilling efficacy through soil treatment; E: green foxtail; conditions: treatment dosage 315 g/ha
# Procedure, shortened: as §2
# directly sown rice [7] = experiment: Test Example 3: soil treatment, effect on crop; b: directly sown rice; conditions: treatment dosage 315 g/ha
# Procedure, shortened: as §2
# black-grass [8] = experiment: Test Example 3: weedkilling efficacy through soil treatment; H: black-grass; conditions: treatment dosage 315 g/ha
# Procedure, shortened: as §2
# catchweed [9] = experiment: Test Example 4: weedkilling efficacy by foliar treatment; O: catchweed; conditions: treatment dosage 315 g/ha
# Procedure, shortened: as §1
# soybean [10] = experiment: Test Example 3: soil treatment, effect on crop; d: soybean; conditions: treatment dosage 315 g/ha
# Procedure, shortened: as §2
# chickweed [11] = experiment: Test Example 4: weedkilling efficacy by foliar treatment; N: chickweed; conditions: treatment dosage 315 g/ha
# Procedure, shortened: as §1
# black-grass [12] = experiment: Test Example 4: weedkilling efficacy by foliar treatment; H: black-grass; conditions: treatment dosage 315 g/ha
# Procedure, shortened: as §1
# wild oat [13] = experiment: Test Example 4: weedkilling efficacy by foliar treatment; G: wild oat; conditions: treatment dosage 315 g/ha
# Procedure, shortened: as §1
# chickweed [14] = experiment: Test Example 3: weedkilling efficacy through soil treatment; N: chickweed; conditions: treatment dosage 315 g/ha
# Procedure, shortened: as §2
# wheat [15] = experiment: Test Example 3: soil treatment, effect on crop; e: wheat; conditions: treatment dosage 315 g/ha
# Procedure, shortened: as §2
# barnyard grass [16] = experiment: Test Example 2: weedkilling efficacy, growth period weed treatment in the submerged state; A: barnyard grass; conditions: treatment dosage 252 g/ha
# Procedure, shortened: (§3)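 First, alluvial soil in pots is flooded to 4 cm and mixed seed is sown. Next, plants grow in a greenhouse at 25 to 30° C until the 1-2 leaf stage. Then diluted emulsion is applied onto the water surface at the given g/ha rate, and injury is assessed after 3 weeks.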
# corn [17] = experiment: Test Example 3: soil treatment, effect on crop; c: corn; conditions: treatment dosage 315 g/ha
# Procedure, shortened: as §2
# Indian mallow [18] = experiment: Test Example 3: weedkilling efficacy through soil treatment; K: Indian mallow; conditions: treatment dosage 315 g/ha
# Procedure, shortened: as §2
# barnyard grass [19] = experiment: Test Example 1: weedkilling efficacy, preemergent weed treatment in the submerged state; A: barnyard grass; conditions: treatment dosage 252 g/ha
# Procedure, shortened: (§4)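 Emulsion diluted with water to the specified per-hectare dosage is applied onto flood water (4 cm) over alluvial soil on the sowing day, with barnyard grass, bulrush and pondweed seeded and rice (2.5-leaf) transplanted; plants grow at 25–30 °C and are rated at 3 weeks.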
# fig-leafed goosefoot [20] = experiment: Test Example 4: weedkilling efficacy by foliar treatment; M: fig-leafed goosefoot; conditions: treatment dosage 315 g/ha
# Procedure, shortened: as §1
# soybean [21] = experiment: Test Example 4: foliar treatment, effect on crop; d: soybean; conditions: treatment dosage 315 g/ha
# Procedure, shortened: as §1
# Indian mallow [22] = experiment: Test Example 4: weedkilling efficacy by foliar treatment; K: Indian mallow; conditions: treatment dosage 315 g/ha
# Procedure, shortened: as §1
# beet [23] = experiment: Test Example 4: foliar treatment, effect on crop; f: beet; conditions: treatment dosage 315 g/ha
# Procedure, shortened: as §1
# oval-leafed pondweed [24] = experiment: Test Example 2: weedkilling efficacy, growth period weed treatment in the submerged state; C: oval-leafed pondweed; conditions: treatment dosage 252 g/ha
# Procedure, shortened: as §3
# bulrush [25] = experiment: Test Example 1: weedkilling efficacy, preemergent weed treatment in the submerged state; B: bulrush; conditions: treatment dosage 252 g/ha
# Procedure, shortened: as §4
# bulrush [26] = experiment: Test Example 2: weedkilling efficacy, growth period weed treatment in the submerged state; B: bulrush; conditions: treatment dosage 252 g/ha
# Procedure, shortened: as §3
# beet [27] = experiment: Test Example 3: soil treatment, effect on crop; f: beet; conditions: treatment dosage 315 g/ha
# Procedure, shortened: as §2
# crabgrass [28] = experiment: Test Example 3: weedkilling efficacy through soil treatment; D: crabgrass; conditions: treatment dosage 315 g/ha
# Procedure, shortened: as §2
# wheat [29] = experiment: Test Example 4: foliar treatment, effect on crop; e: wheat; conditions: treatment dosage 315 g/ha
# Procedure, shortened: as §1
# oval-leafed pondweed [30] = experiment: Test Example 1: weedkilling efficacy, preemergent weed treatment in the submerged state; C: oval-leafed pondweed; conditions: treatment dosage 252 g/ha
# Procedure, shortened: as §4
# redroot pigweed [31] = experiment: Test Example 3: weedkilling efficacy through soil treatment; L: redroot pigweed; conditions: treatment dosage 315 g/ha
# Procedure, shortened: as §2
# birds-eye speedwell = experiment: Test Example 3: weedkilling efficacy through soil treatment; p: birds-eye speedwell; conditions: treatment dosage 315 g/ha
# Procedure, shortened: as §2
# Italian ryegrass [32] = experiment: Test Example 4: weedkilling efficacy by foliar treatment; I: Italian ryegrass; conditions: treatment dosage 315 g/ha
# Procedure, shortened: as §1
# wild oat [33] = experiment: Test Example 3: weedkilling efficacy through soil treatment; G: wild oat; conditions: treatment dosage 315 g/ha
# Procedure, shortened: as §2
# corn [34] = experiment: Test Example 4: foliar treatment, effect on crop; c: corn; conditions: treatment dosage 315 g/ha
# Procedure, shortened: as §1
# Italian ryegrass [35] = experiment: Test Example 3: weedkilling efficacy through soil treatment; I: Italian ryegrass; conditions: treatment dosage 315 g/ha
# Procedure, shortened: as §2
# fig-leafed goosefoot [36] = experiment: Test Example 3: weedkilling efficacy through soil treatment; M: fig-leafed goosefoot; conditions: treatment dosage 315 g/ha
# Procedure, shortened: as §2
# transplanted rice = experiment: Test Example 1: preemergent weed treatment in the submerged state, effect on crop; a: transplanted rice; conditions: treatment dosage 252 g/ha
# Procedure, shortened: as §4
smiles,measurement,setting,value
CC1=C(c2ccccc2)C(=O)N(C(C)(C)C(=O)Nc2cc(Cl)cc(Br)n2)CO1 [B-2-36],D (crabgrass) weedkilling efficacy grade,crabgrass [1],"5 (weed kill ratio 90% or more, (practically complete withering))"
same,E (green foxtail) weedkilling efficacy grade,green foxtail [2],"5 (weed kill ratio 90% or more, (practically complete withering))"
same,O (catchweed) weedkilling efficacy grade,catchweed [3],"5 (weed kill ratio 90% or more, (practically complete withering))"
same,L (redroot pigweed) weedkilling efficacy grade,redroot pigweed [4],"3 (weed kill ratio 40% or more, less than 70%)"
same,b (directly sown rice) effect on crop grade,directly sown rice [5],"4 (weed kill ratio 70% or more, less than 90%)"
same,E (green foxtail) weedkilling efficacy grade,green foxtail [6],"5 (weed kill ratio 90% or more, (practically complete withering))"
same,b (directly sown rice) effect on crop grade,directly sown rice [7],"4 (weed kill ratio 70% or more, less than 90%)"
same,H (black-grass) weedkilling efficacy grade,black-grass [8],"5 (weed kill ratio 90% or more, (practically complete withering))"
same,O (catchweed) weedkilling efficacy grade,catchweed [9],"4 (weed kill ratio 70% or more, less than 90%)"
same,d (soybean) effect on crop grade,soybean [10],"1 (weed kill ratio 5% or more, less than 20%)"
same,N (chickweed) weedkilling efficacy grade,chickweed [11],"4 (weed kill ratio 70% or more, less than 90%)"
same,H (black-grass) weedkilling efficacy grade,black-grass [12],"3 (weed kill ratio 40% or more, less than 70%)"
same,G (wild oat) weedkilling efficacy grade,wild oat [13],"1 (weed kill ratio 5% or more, less than 20%)"
same,N (chickweed) weedkilling efficacy grade,chickweed [14],"4 (weed kill ratio 70% or more, less than 90%)"
same,e (wheat) effect on crop grade,wheat [15],0 (weed kill ratio 5% or less (practically no effect))
same,A (barnyard grass) weedkilling efficacy grade,barnyard grass [16],"5 (weed kill ratio 90% or more, (practically complete withering))"
same,c (corn) effect on crop grade,corn [17],"1 (weed kill ratio 5% or more, less than 20%)"
same,K (Indian mallow) weedkilling efficacy grade,Indian mallow [18],"4 (weed kill ratio 70% or more, less than 90%)"
same,A (barnyard grass) weedkilling efficacy grade,barnyard grass [19],"5 (weed kill ratio 90% or more, (practically complete withering))"
same,M (fig-leafed goosefoot) weedkilling efficacy grade,fig-leafed goosefoot [20],"4 (weed kill ratio 70% or more, less than 90%)"
same,d (soybean) effect on crop grade,soybean [21],"3 (weed kill ratio 40% or more, less than 70%)"
same,K (Indian mallow) weedkilling efficacy grade,Indian mallow [22],"4 (weed kill ratio 70% or more, less than 90%)"
same,f (beet) effect on crop grade,beet [23],"3 (weed kill ratio 40% or more, less than 70%)"
same,C (oval-leafed pondweed) weedkilling efficacy grade,oval-leafed pondweed [24],"5 (weed kill ratio 90% or more, (practically complete withering))"
same,B (bulrush) weedkilling efficacy grade,bulrush [25],"5 (weed kill ratio 90% or more, (practically complete withering))"
same,B (bulrush) weedkilling efficacy grade,bulrush [26],"5 (weed kill ratio 90% or more, (practically complete withering))"
same,f (beet) effect on crop grade,beet [27],"3 (weed kill ratio 40% or more, less than 70%)"
same,D (crabgrass) weedkilling efficacy grade,crabgrass [28],"5 (weed kill ratio 90% or more, (practically complete withering))"
same,e (wheat) effect on crop grade,wheat [29],0 (weed kill ratio 5% or less (practically no effect))
same,C (oval-leafed pondweed) weedkilling efficacy grade,oval-leafed pondweed [30],"5 (weed kill ratio 90% or more, (practically complete withering))"
same,L (redroot pigweed) weedkilling efficacy grade,redroot pigweed [31],"4 (weed kill ratio 70% or more, less than 90%)"
same,P (birds-eye speedwell) weedkilling efficacy grade,birds-eye speedwell,"4 (weed kill ratio 70% or more, less than 90%)"
same,I (Italian ryegrass) weedkilling efficacy grade,Italian ryegrass [32],0 (weed kill ratio 5% or less (practically no effect))
same,G (wild oat) weedkilling efficacy grade,wild oat [33],"1 (weed kill ratio 5% or more, less than 20%)"
same,c (corn) effect on crop grade,corn [34],"3 (weed kill ratio 40% or more, less than 70%)"
same,I (Italian ryegrass) weedkilling efficacy grade,Italian ryegrass [35],"4 (weed kill ratio 70% or more, less than 90%)"
same,M (fig-leafed goosefoot) weedkilling efficacy grade,fig-leafed goosefoot [36],"3 (weed kill ratio 40% or more, less than 70%)"
same,a (transplanted rice) effect on crop grade,transplanted rice,0 (weed kill ratio 5% or less (practically no effect))
